The values below come from ChEMBL document CHEMBL1287764, “3-O-phosphate ester conjugates of 17-β-O-{1-[2-carboxy-(2-hydroxy-4-methoxy-3-carboxamido)anilido]ethyl}1,3,5(10)-estratriene as novel bone-targeting agents” (Bioorg Med Chem Lett, 2010).

The subject of the experiment is Hydroxyapatite. The experiment in a line: Binding affinity to hydroxyapatite at 10 nM by UV-spectroscopy relative to tetracycline.

As to `C[C@]12CC[C@@H]3c4ccc(O)cc4CC[C@H]3[C@@H]1CC[C@@H]2O`, the RBA was 0%.

Compound `CCCCOP(=O)(OCCCC)Oc1ccc2c(c1)CC[C@@H]1[C@@H]2CC[C@]2(C)[C@@H](OCCC(=O)Nc3ccc(OC)c(C(N)=O)c3O)CC[C@@H]12` had an RBA of 100%.

Compound `CCCCC(CC)COP(=O)(OCC(CC)CCCC)Oc1ccc2c(c1)CC[C@@H]1[C@@H]2CC[C@]2(C)[C@@H](OCCC(=O)Nc3ccc(OC)c(C(N)=O)c3O)CC[C@@H]12` (stereo partly drawn) gave an RBA of 180%. Under `CN(C)[C@@H]1C(O)=C(C(N)=O)C(=O)[C@@]2(O)C(O)=C3C(=O)c4c(O)cccc4[C@@](C)(O)[C@H]3C[C@@H]12` stands 100%. On to `COc1ccc(NC(=O)CCO[C@H]2CC[C@H]3[C@@H]4CCc5cc(OP(=O)(OCc6ccccc6)OCc6ccccc6)ccc5[C@H]4CC[C@]23C)c(O)c1C(N)=O`, for which the RBA is 190%. For `COc1ccc(NC(=O)CCO[C@H]2CC[C@H]3[C@@H]4CCc5cc(OP(=O)(OCC(C)C)OCC(C)C)ccc5[C@H]4CC[C@]23C)c(O)c1C(N)=O` the value was 180%. Compound `COc1ccc(NC(=O)CCO[C@H]2CC[C@H]3[C@@H]4CCc5cc(OP(=O)(OC(C)C)OC(C)C)ccc5[C@H]4CC[C@]23C)c(O)c1C(N)=O` showed an RBA of 200%. With `CCCCCCCCCCCCOP(=O)(OCCCCCCCCCCCC)Oc1ccc2c(c1)CC[C@@H]1[C@@H]2CC[C@]2(C)[C@@H](OCCC(=O)Nc3ccc(OC)c(C(N)=O)c3O)CC[C@@H]12`, the RBA was 160%.
